Earlier results on one molecule are cited in patent US20130121963A1, “N-PHENYL-2-PYRIMIDINEAMINE DERIVATIVES” (Concert Pharmaceuticals Inc., priority 2008, published 2013).

Molecules are shown by their SMILES.

Take `Cc1ccc(NC(=O)c2ccc(CN3CCNCC3)cc2)cc1Nc1nccc(-c2cccnc2)n1` [N-demethylated piperazine derivative]: the half-life (from the FDA label for imatinib) is 40 h. The “plasma AUC of the metabolite relative to that of the parent” value (percent of the parent (imatinib) plasma AUC, from the FDA label) is listed as “approximately 15%”.
